Results: BindingDB's records for doi:10.1021/jm00107a051 (Merck Sharp and Dohme Research Laboratories, 1991)

What follows are molecules tested against T1, Dimer of Gag-Pol polyprotein [489-587] (Human immunodeficiency virus 1, UniProt P12497) (assay: Protease Inhibition Assay). Conditions: pH 5.5; 30 °C.
T1 construct: 489-587
Description: Sensitivity of HIV-1 protease activity to protease inhibitors was determined by a peptide substrate cleavage assay. Protease products were analyzed on a reverse-phase high-pressure liquid chromatograph.
Work on CC(C)(C)OC(=O)N[C@@H](Cc1ccccc1)[C@@H](O)C[C@@H](Cc1ccccc1)C(=O)N[C@H]1c2ccccc2C[C@H]1C(N)=O [tert-butyl N-[(2S,3S,5R)-5-benzyl-5-{[(1R,2R)-2-carbamoyl-2,3-dihydro-1H-inden-1-yl]carbamoyl}-3-hydroxy-1-phenylpentan-2-yl]carbamate] yielded an IC50 of 1.8 nM.
Work on CC(C)(C)OC(=O)N[C@@H](Cc1ccccc1)[C@@H](O)C[C@@H](Cc1ccccc1)C(=O)NC1Cc2ccccc2C1 [tert-butyl N-[(2S,3S,5R)-5-benzyl-5-(2,3-dihydro-1H-inden-2-ylcarbamoyl)-3-hydroxy-1-phenylpentan-2-yl]carbamate] yielded an IC50 of 19 nM.
In the case of CC(C)(C)OC(=O)N[C@@H](Cc1ccccc1)[C@@H](O)C[C@@H](Cc1ccccc1)C(=O)N[C@@H]1c2ccccc2C[C@@H]1O [tert-butyl N-[(2S,3S,5R)-5-benzyl-3-hydroxy-5-{[(1R,2S)-2-hydroxy-2,3-dihydro-1H-inden-1-yl]carbamoyl}-1-phenylpentan-2-yl]carbamate], the IC50 is reported as 229 nM.
With CC(C)(C)OC(=O)N[C@@H](Cc1ccccc1)[C@@H](O)C[C@@H](Cc1ccccc1)C(=O)N[C@H]1c2ccccc2[C@@H](N)[C@H]1O [tert-butyl N-[(2S,3S,5R)-5-{[(1S,2R,3R)-3-amino-2-hydroxy-2,3-dihydro-1H-inden-1-yl]carbamoyl}-5-benzyl-3-hydroxy-1-phenylpentan-2-yl]carbamate] the IC50 was 1.9 nM.
